The source of these data is ChEMBL document CHEMBL1201862, “PubChem BioAssay data set” (2004).

Test systems include TK-10; MCF7; OVCAR-3; CAKI-1; OVCAR-5; NCI-H460; NCI-H226; PC-3; 786-0; MDA-N; LOX IMVI; HL-60; SF-268; DU-145; SK-MEL-28; HCT-15; COLO 205; MDA-MB-231; HCT-116; MOLT-4.
What all share (assay): DTP human tumour cell line panel, 48 h

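Assay format: 96-well plates, 48-hour exposure. GI50 marks 50% less growth.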 Active and inactive are the calls of the source. Cut-off read from the data, not from the text of the source: active = GI50 up to about 1.1 µM and inactive = higher.

The term GI50 denotes the concentration at which growth is held to half of that of the control. On to `Cc1cc2c(O)nc(N)nc2nc1C`, for which the GI50 in the assay on TK-10, in the assay with MCF7, with OVCAR-3, in the assay with CAKI-1, in the assay on OVCAR-5 and with NCI-H460 was > 100 µM (inactive) throughout. Moreover, the GI50 in the assay with NCI-H226, with PC-3, in the assay with 786-0, in the assay on MDA-N, in the assay with LOX IMVI and in the assay with HL-60 was > 100 µM (inactive) throughout. The GI50 in the assay on SF-268 is > 100 µM (inactive); in the assay with DU-145 it was > 100 µM (inactive); with SK-MEL-28, > 100 µM (inactive); with HCT-15, greater than 100 µM; in the assay on COLO 205, > 100 µM (inactive); with MDA-MB-231, > 100 µM (inactive). Also, the GI50 with HCT-116 was > 100 µM (inactive).

For the compound `O=C(NNC(=S)NCc1ccccc1)c1csc(NC(=S)NC2CCCCC2)n1`, the GI50 in the assay on MOLT-4 is 30.3 µM (inactive); in the assay on TK-10, 42.5 µM (inactive); with MCF7 it was 29.6 µM (inactive); in the assay on OVCAR-3 it was 42.1 µM (inactive); in the assay with CAKI-1, 47.3 µM (inactive); with OVCAR-5 it was > 100 µM (inactive). The GI50 in the assay with NCI-H226 is 5.93 µM (inactive); with PC-3, 37.3 µM (inactive); with 786-0, 45.8 µM (inactive); in the assay on MDA-N it was 28.9 µM (inactive); in the assay with LOX IMVI, 27.4 µM (inactive); with HL-60, > 100 µM (inactive). Besides, the GI50 in the assay with SF-268 was 27.6 µM (inactive); in the assay with DU-145, 59 µM (inactive); with HCT-15, 37.5 µM; in the assay on COLO 205, 18.2 µM (inactive); in the assay with MDA-MB-231, 44.9 µM (inactive); with HCT-116, 22.3 µM (inactive).

Turning to `CC(C)Oc1ccc2c(c1)OCC1Cc3ccccc3OC21` (centres undefined), the GI50 is 36.2 µM (inactive) in the assay on MOLT-4; 51.3 µM (inactive) in the assay with TK-10; 46.8 µM (inactive) in the assay on MCF7; > 100 µM (inactive) with OVCAR-3; > 100 µM (inactive) with CAKI-1; > 100 µM (inactive) with OVCAR-5. In addition, the GI50 is > 100 µM (inactive) in the assay on NCI-H226; > 100 µM (inactive) in the assay on PC-3; > 100 µM (inactive) in the assay on 786-0; 49.2 µM (inactive) with MDA-N; > 100 µM (inactive) in the assay on LOX IMVI; > 100 µM (inactive) in the assay with HL-60. The GI50 in the assay with SF-268 is > 100 µM (inactive); in the assay with DU-145, > 100 µM (inactive); in the assay with HCT-15, 18.3 µM; with COLO 205, > 10 µM (inactive); in the assay on MDA-MB-231, > 100 µM (inactive); with HCT-116, > 100 µM (inactive).

Take `OC(CCN1CCN(CCOC(c2ccccc2)c2ccccc2)CC1)c1ccc(Br)cc1` (centres undefined): the GI50 with TK-10 is 13.7 µM (inactive); in the assay on MCF7 it was 13.3 µM (inactive); in the assay on OVCAR-3 it was 12.6 µM (inactive); in the assay on CAKI-1, 12.2 µM (inactive); in the assay on OVCAR-5, 14.9 µM (inactive); in the assay on NCI-H460, 8.11 µM (inactive). The GI50 in the assay with NCI-H226 is 15 µM (inactive); in the assay on PC-3 it was 10.9 µM (inactive); in the assay on 786-0 it was 10.7 µM (inactive); in the assay with MDA-N, 10.9 µM (inactive); with LOX IMVI, 10 µM (inactive); in the assay on HL-60, 10.1 µM (inactive). The GI50 was 14.8 µM (inactive) in the assay with SF-268; 16 µM (inactive) with DU-145; 7.69 µM (inactive) in the assay on SK-MEL-28; 6.43 µM with HCT-15; 1.71 µM (inactive) in the assay with COLO 205; 11.7 µM (inactive) in the assay on MDA-MB-231. Besides, in the assay with HCT-116, the GI50 is 11.2 µM (inactive).

Consider `Cc1nc2c(-c3ccccc3)[nH]c(C)c2c(=O)o1`, for which the GI50 with MOLT-4 is 52.5 µM (inactive); in the assay with TK-10 it was > 100 µM (inactive); in the assay with MCF7, 1.39 µM (inactive); in the assay on CAKI-1 it was 37.2 µM (inactive); in the assay with OVCAR-5, > 100 µM (inactive); with NCI-H460 it was > 100 µM (inactive). Also, the GI50 with NCI-H226 is 87.5 µM (inactive); in the assay with PC-3, > 100 µM (inactive); with 786-0 it was 61.8 µM (inactive); with MDA-N, 45.6 µM (inactive); with LOX IMVI it was 42.5 µM (inactive); with HL-60, 15.7 µM (inactive). The GI50 is 15.5 µM (inactive) with SF-268; 76.2 µM (inactive) in the assay on DU-145; > 100 µM (inactive) with SK-MEL-28; 30.8 µM in the assay on HCT-15; 58.3 µM (inactive) in the assay on COLO 205; 31.2 µM (inactive) in the assay with MDA-MB-231. In addition, the GI50 in the assay with HCT-116 is 45.6 µM (inactive).

For the compound `CSc1cnn(CCC#N)c(=O)n1`, the GI50 was 27.1 µM (inactive) with MOLT-4; > 100 µM (inactive) in the assay with TK-10; 39.4 µM (inactive) with MCF7; > 100 µM (inactive) in the assay with CAKI-1; > 100 µM (inactive) with OVCAR-5; > 100 µM (inactive) in the assay on NCI-H226. Also, the GI50 was > 100 µM (inactive) in the assay on PC-3; > 100 µM (inactive) in the assay on 786-0; > 100 µM (inactive) in the assay with MDA-N; 93.5 µM (inactive) in the assay on LOX IMVI; 33.2 µM (inactive) with HL-60; > 100 µM (inactive) with SF-268. For the same compound, the GI50 in the assay on DU-145 is > 100 µM (inactive); with SK-MEL-28 it was > 100 µM (inactive); with HCT-15, greater than 10 µM; with COLO 205, > 100 µM (inactive); in the assay with MDA-MB-231, > 100 µM (inactive); in the assay on HCT-116, > 100 µM (inactive).

`C=CC1CN(C(=O)OCC)N(C(=O)OCC)C1CCc1ccccc1` (centres undefined): the GI50 is 31.2 µM (inactive) with MOLT-4; > 100 µM (inactive) in the assay on TK-10; 42.2 µM (inactive) with MCF7; > 100 µM (inactive) in the assay on CAKI-1; > 100 µM (inactive) in the assay on OVCAR-5; 74.1 µM (inactive) in the assay on NCI-H460. Also, the GI50 in the assay on NCI-H226 was > 100 µM (inactive); with PC-3, 79.1 µM (inactive); in the assay on 786-0, > 100 µM (inactive); in the assay with MDA-N it was > 100 µM (inactive); with LOX IMVI, > 100 µM (inactive); in the assay on HL-60 it was 35.6 µM (inactive). In addition, the GI50 in the assay with SF-268 was > 100 µM (inactive); in the assay on DU-145 it was > 100 µM (inactive); in the assay on SK-MEL-28, > 100 µM (inactive); in the assay with HCT-15, 65.5 µM; with COLO 205, 71.6 µM (inactive); in the assay on MDA-MB-231, > 100 µM (inactive). Moreover, the GI50 with HCT-116 is 67.1 µM (inactive).

For `c1ccc([P+](Cc2ccccc2C[P+](c2ccccc2)(c2ccccc2)c2ccccc2)(c2ccccc2)c2ccccc2)cc1`, the GI50 in the assay on TK-10 is > 100 µM (inactive); with MCF7, > 100 µM (inactive); in the assay with OVCAR-3, 86.7 µM (inactive); in the assay with CAKI-1, > 100 µM (inactive); with OVCAR-5 it was > 100 µM (inactive); in the assay on NCI-H460 it was 38.9 µM (inactive). The GI50 was > 100 µM (inactive) with NCI-H226; > 100 µM (inactive) with PC-3; > 100 µM (inactive) with 786-0; 30.3 µM (inactive) in the assay with MDA-N; 37.6 µM (inactive) in the assay with LOX IMVI; 22.8 µM (inactive) in the assay on HL-60. The GI50 in the assay with SF-268 was > 100 µM (inactive); in the assay on DU-145, > 100 µM (inactive); in the assay with SK-MEL-28 it was > 100 µM (inactive); with HCT-15, greater than 100 µM; with COLO 205, > 100 µM (inactive); with MDA-MB-231 it was > 100 µM (inactive). Further, the GI50 in the assay with HCT-116 was 29.4 µM (inactive).
